IC50 data for 15 compounds are collected here from patent EP3290412A1, “HIV-1 NUCLEOCAPSID INHIBITORS” (Università degli Studi di Siena, priority 2016, dated 2018).

Each structure is given as a SMILES string. Read-outs that look alike come from different tables or passages of the source.

This experiment concerns HIV-1 reference strain NL4-3. Put plainly: BiCycle assay (MT-2 then TZM-bl cells). The format is cell-based. The procedure: BiCycle Assay is cell based assay allowing the evaluation of the antiviral activity of HIV-1 inhibitors on the whole replication cycle of HIV-1. The assay consists in a first round of infection of the T-cell line MT-2 followed by infection of TZM-bl cells. MT-2 cells were seeded at a concentration of 50,000 cells/well in a 96-well plate and infected with the HIV-1 reference strain NL4-3 in presence of five-fold dilutions of the investigational compounds. After 72 hours, 50 µl of supernatant from each well, containing the virus produced in the first round of infection, were used to infect TZM-bl cells seeded in a 96-plate well at a concentration of 30,000 cells/well. Two days later, cells were lysed adding 40 µl of Glo Lysis Buffer (Promega) to each well for 5 minutes, then 40 µl of Brighy-Glo Luciferase Reagent (Promega) were added to each well for relative luminescence units (RLU) counting using Glo-Max Multi Detection System (Promega). RLU values from each well were elaborated using the GraphPad v5.0 software to calculate the IC50 of each compound.

The mark [1] stands for this setting: Human immunodeficiency virus 1, NL43, TZM-bl, read-out: BiCycle IC50 nM.

Regarding `O=C(NC1(C2CCCCC2)CC1)c1nc(-c2ccccn2)nc(O)c1O` [Compound 24, N-(1-cyclohexylcyclopropyl)-5,6-dihydroxy-2-(pyridin-2-yl)pyrimidine-4-carboxamide], under setting [1], the IC50 was determined as 110 nM.

`CC1(C)CCC(NC(=O)c2nc(-c3ccccn3)nc(O)c2O)CC1` [Compound 58, N-(4,4-dimethylcyclohexyl)-5,6-dihydroxy-2-(pyridin-2-yl)pyrimidine-4-carboxamide]: under setting [1], the concentration for half-maximal inhibition (IC50) turned out to be 268 nM.

`C[C@@H](NC(=O)c1nc(-c2ccc(Cl)cn2)nc(O)c1O)C1CCCCC1` [Compound 49, (R)-2-(5-chloropyridin-2-yl)-N-(1-cyclohexylethyl)-5,6-dihydroxypyrimidine-4-carboxamide]: the IC50 under setting [1] was 352 nM.

For `C[C@H](NC(=O)c1nc(-c2nccc3[nH]ccc23)nc(O)c1O)C1CCCCC1` [Compound 86, (S)-N-(1-cyclohexylethyl)-5,6-dihydroxy-2-(1H-pyrrolo[3,2-c]pyridin-4-yl)pyrimidine-4-carboxamide], under setting [1], the IC50 worked out at 2280 nM.

For the compound `C[C@@H](NC(=O)c1nc(-c2cc(N3CCN(C)CC3)ccn2)nc(O)c1O)C1CCCCC1` [Compound 76, (R)-N-(1-cyclohexylethyl)-5,6-dihydroxy-2-(4-(4-methylpiperazin-1-yl)pyridin-2-yl)pyrimidine-4-carboxamide], the IC50 under setting [1] turned out to be 565 nM.

Consider `O=C(NCC1CCCCC1)c1nc(-c2ncccc2Cl)nc(O)c1O` [Compound 16, 2-(3-chloropyridin-2-yl)-N-(cyclohexylmethyl)-5,6-dihydroxypyrimidine-4-carboxamide], for which, for the setting “Human immunodeficiency virus 1, NL43, MT-2 cells 72 hours then TZM-bl cells two days, NL4-3, read-out: BiCycle IC50”, the IC50 stood at 2050 nM.

Take `O=C(OCCC1CCCCC1)c1nc(-c2ccccn2)nc(O)c1O` [Compound 12, 2-cyclohexylethyl 5,6-dihydroxy-2-(pyridin-2-yl)pyrimidine-4-carboxylate]: the IC50 under setting [1] amounted to 2820 nM.

As for `Cc1cccnc1-c1nc(O)c(O)c(C(=O)N[C@@H](C)C2CCCCC2)n1` [Compound 39, (S)-N-(1-cyclohexylethyl)-5,6-dihydroxy-2-(3-methylpyridin-2-yl)pyrimidine-4-carboxamide], the IC50 under setting [1] amounted to 76.5 nM.

With `COc1cccc(-c2nc(O)c(O)c(C(=O)N[C@H](C)C3CCCCC3)n2)n1` [Compound 37, (R)-N-(1-cyclohexylethyl)-5,6-dihydroxy-2-(6-methoxypyridin-2-yl)pyrimidine-4-carboxamide], the IC50 under setting [1] is 332 nM.

For `O=C(NCC1CCC1)c1nc(-c2cc3ccccc3cn2)nc(O)c1O` [Compound 47, N-(cyclobutylmethyl)-5,6-dihydroxy-2-(isoquinolin-3-yl)pyrimidine-4-carboxamide], the IC50 under setting [1] stood at 870 nM.

With `COc1ccnc(-c2nc(O)c(O)c(C(=O)NC3CCC(C)(C)CC3)n2)c1` [Compound 77, N-(4,4-dimethylcyclohexyl)-5,6-dihydroxy-2-(4-methoxypyridin-2-yl)pyrimidine-4-carboxamide], the IC50 under setting [1] amounted to 1170 nM.

In the case of `C[C@@H](NC(=O)c1nc(-c2ccc(C(=O)OCc3ccccc3)cn2)nc(O)c1O)C1CCCCC1` [Compound 21, benzyl (R)-6-(4-((1-cyclohexylethyl)carbamoyl)-5,6-dihydroxypyrimidin-2-yl)nicotinate], the IC50 under setting [1] was determined as 118 nM.

`C[C@@H](NC(=O)c1nc(-c2cccc(Cl)n2)nc(O)c1O)C1CCCCC1` [Compound 34, (R)-2-(6-chloropyridin-2-yl)-N-(1-cyclohexylethyl)-5,6-dihydroxypyrimidine-4-carboxamide]: the IC50 under setting [1] came out at 665 nM.

Turning to `CC(OC(=O)c1nc(-c2ccccn2)nc(O)c1O)C1CCCCC1` (stereo not drawn) [Compound 17, 1-cyclohexylethyl 5,6-dihydroxy-2-(pyridin-2-yl)pyrimidine-4-carboxylate], under setting [1], the IC50 was 2030 nM.

Consider `O=C(OCCCC1CCCCC1)c1nc(-c2ccccn2)nc(O)c1O` [Compound 14, 3-cyclohexylpropyl 5,6-dihydroxy-2-(pyridin-2-yl)pyrimidine-4-carboxylate], for which the IC50 under setting [1] was 6830 nM.
